The source of these data is paper PMC13450841 (PLOS Pathogens, 2026).

For data set [1], the target named is T1, ExoU (Pseudomonas aeruginosa, UniProt O34208). Kind of data set: ExoU in vitro phospholipase assay (real-time, dose-response). Type of data set: biochemical. The note with it: for Inhibition of ExoU phospholipase activity (in words): real-time phospholipase assay, Fig 2A, 2B, 2E.
Another data set relates to P. aeruginosa PA103. The following applies: read-out: IC50 of bacterial growth.
Data set [2] has as its target T1, ExoU. Kind of data set: nanoDSF thermal stability of ExoU. Format: binding. The following applies: 10 µM compound, read-out: Decrease of ExoU Tm. The procedure:
Thermal stability of recombinant His₆-ExoU was assessed using a Prometheus NT.48 instrument (NanoTemper Technologies, Cambridge, UK) without extrinsic dyes, as these were not compatible with the use of PIP2. ExoU was diluted to 5 µM in 20 mM TrisHCl-HCl (pH 8.2), 100 mM NaCl, and 10% (v/v) glycerol. To evaluate ligand effects, four samples were prepared: ExoU alone, ExoU with 5 µM PIP2, ExoU with 10 µM inhibitor, and ExoU with both 5 µM PIP2 and 10 µM indicated inhibitor, each maintaining 1% (v/v) DMSO. Ten microliters of each mixture were loaded into highsensitivity-sensitivity nanoDSF glass capillaries and subjected to a thermal ramp from 25 °C to 95 °C at 1 °C/min. Intrinsic tryptophan fluorescence emission at 330 nm and 350 nm was recorded continuously, and the ratio F₃₅₀/F₃₃₀ was plotted against temperature. Melting temperatures (Tₘ) were determined from the inflection point of the first derivative of the fluorescence ratio using the manufacturer’s analysis software. All conditions were measured in triplicate. Changes in melting temperature (Δ Tₘ) compared to DMSO, or DMSO PIP2 controls were plotted using GraphPad.
Supplementary file ppat.1014474.s008.tif: S7 Fig Nano differential scanning fluorimetry (nanoDSF) analysis of ExoU thermal stability in the presence of compounds. Raw melt curves of recombinant ExoU are shown in the absence (left) and presence (right) of PIP2 (5 µM) from three independent (A-C) experiments. Compounds were tested at 10 µM. Intrinsic tryptophan fluorescence emission was continuously monitored at 330 nm and 350 nm as the temperature increased, and the fluorescence ratio (F₃₅₀/F₃₃₀) was plotted against temperature. Melting temperatures (Tₘ) were calculated from the average inflection point of the first derivative of the fluorescence ratio using the manufacturer’s analysis software. (TIF)

The subject of data set [3] is primary human corneal epithelial cells.
Another data set in a line: in vitro. The note with it: human, primary human corneal (limbal) epithelial cells.
Data set [4] relates to PA103-infected HCE-T cells. Kind of data set: LDH release assay in PA103-infected scratched HCE-T cells. Type of data set: cell-based, human. The following applies: 2.5 µM compound, PA103 MOI 10, 4 hours, S6 Fig. An excerpt: Percentage lysis was normalized to the maximal LDH release from the kit positive control (CyQUANT; Thermo Fisher). (TIF)
[5] abbreviates: Fig 1B dose-response, PIP2 and ubiquitin present, read-out: IC50 for ExoU inhibition in vitro.

Read-outs that look alike come from different tables or passages of the source. Where a SMILES comes first, the peptide text is derived from it.

In general, IC50 refers to the concentration that inhibits the measured activity by half. A word on the CC50: it is the concentration that lowers cell viability or growth by half. A lower CC50 goes with greater toxicity to the cells.

T1 sequence (O34208 1-687): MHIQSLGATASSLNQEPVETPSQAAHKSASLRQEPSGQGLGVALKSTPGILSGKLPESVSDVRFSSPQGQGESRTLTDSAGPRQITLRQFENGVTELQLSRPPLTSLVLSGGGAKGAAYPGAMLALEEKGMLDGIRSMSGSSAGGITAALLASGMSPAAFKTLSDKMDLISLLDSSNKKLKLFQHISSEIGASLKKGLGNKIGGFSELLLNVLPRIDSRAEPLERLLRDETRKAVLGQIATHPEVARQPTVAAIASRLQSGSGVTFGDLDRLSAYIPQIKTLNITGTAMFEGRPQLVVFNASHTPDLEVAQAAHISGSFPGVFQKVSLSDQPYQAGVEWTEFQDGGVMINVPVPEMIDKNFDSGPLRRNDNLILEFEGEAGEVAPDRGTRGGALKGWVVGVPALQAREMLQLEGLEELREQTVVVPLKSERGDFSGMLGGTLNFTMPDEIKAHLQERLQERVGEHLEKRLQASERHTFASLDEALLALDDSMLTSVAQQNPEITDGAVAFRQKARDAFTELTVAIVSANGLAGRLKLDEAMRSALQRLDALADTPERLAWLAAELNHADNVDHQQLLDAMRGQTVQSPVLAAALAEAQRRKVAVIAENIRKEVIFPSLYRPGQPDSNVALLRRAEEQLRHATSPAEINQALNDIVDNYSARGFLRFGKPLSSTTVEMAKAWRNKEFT

For `CC[C@H](C)CCCCC(=O)O` [(S)-6-methyloctanoic acid], the “Inhibition of ExoU phospholipase activity (in words)” value (from here on “Inhibition … (in words)”) at ExoU [1] is reported as “failed to inhibit ExoU”. Consider `[Cl][Bi]([Cl])[Cl]` [Bismuth chloride, bismuth chloride], for which the IC50 at ExoU [1] (Fig 2C dose-response phospholipase assays, read-out: IC50 of bismuth-based ExoU inhibitors and subcitrate alone) worked out at 9.2 µM. Regarding `CC[C@H](C)CCCCC(=O)N[C@@H](CCN)C(=O)N[C@H](C(=O)N[C@@H](CCN)C(=O)N[C@H]1CCNC(=O)[C@H]([C@@H](C)O)NC(=O)[C@H](CCN)NC(=O)[C@H](CCN)NC(=O)[C@H](CC(C)C)NC(=O)[C@@H](Cc2ccccc2)NC(=O)[C@H](CCN)NC1=O)[C@@H](C)O` [Pol, polymyxin B] (HELM PEPTIDE1{[CC[C@H](C)CCCCC(=O)[*:2]].[Dab].T.[Dab].[Dab].[Dab].[dF].L.[Dab].[Dab].T}$PEPTIDE1,PEPTIDE1,5:R3-11:R2$$$V2.0), the IC50 on ExoU [1] (setting [5]) was determined as 13.1 ± 1.7 µM; on ExoU [1] (Fig 3C, three-parameter fit, read-out: IC50 for ExoU inhibition, individual inhibitors or equimolar combinations) it was 11.6 ± 0.9 µM; against ExoU [1] (IC50 for ExoU inhibition, polymyxin B and poltide analogues, Fig 2E), 13 µM; in the data set with P. aeruginosa PA103 (in DMEM/F-12 supplemented with 10% (v/v) FBS) it was 2.1 µM; with P. aeruginosa PA103 (in LB), 0.75 µM. Also, the results for the ΔTm at 10 µM on ExoU [2] (absence of PIP2) and at ExoU [2] (with 5 µM PIP2) were -3.8 °C and -6.2 °C, respectively. The “LD50 (LDH release)” value in data set [3] came out at 42.5 ± 10.6 µM. Further, the CC50 at 48 h in “in vitro” was 43 µM. Consider `[H]/N=C(\N/C(=N/[H])NCCCCCCNC(=N)NC(=N)Nc1ccc(Cl)cc1)Nc1ccc(Cl)cc1` [chlorhexidine], for which the IC50 at ExoU [1] (setting [5]) amounted to 18.5 ± 3.3 µM.

`On1ccccc1=S.On1ccccc1=S.[Cu]` [copper pyrithione]: on ExoU [1], the “Inhibition … (in words)” value is recorded as “Neither copper pyrithione, nor pyrithione inhibited ExoU”. As to `CC(=O)Oc1ccc(C(=C2CCCCC2)c2ccc(OC(C)=O)cc2)cc1` [cyclofenil], the IC50 on ExoU [1] (setting [5]) was 20.2 ± 2.8 µM. Consider `CCN(CC)CCN(Cc1ccc(-c2ccc(C(F)(F)F)cc2)cc1)C(=O)Cn1c(SCc2ccc(F)cc2)nc(=O)c2c1CCC2` [darapladib], for which the “ExoU activity with arachidonoyl thio-PC substrate” value at ExoU [1] (10 µM compound, S4 Fig) is on record as “did not inhibit ExoU activity”. Take `COc1cc2c(cc1OC)[C@@H](Cc1cc(OC)c(OC)c(OC)c1)[N+](C)(CCCOC(=O)CC/C=C/CCC(=O)OCCC[N+]1(C)CCc3cc(OC)c(OC)cc3[C@H]1Cc1cc(OC)c(OC)c(OC)c1)CC2` (stereo partly drawn) [mivacurium chloride]: the IC50 on ExoU [1] (setting [5]) amounted to 6 ± 1.8 µM. On to `[O-][n+]1ccccc1S` [pyrithione], for which the “Inhibition … (in words)” value at ExoU [1] is listed as “Neither copper pyrithione, nor pyrithione inhibited ExoU”. Take `O=S(=O)([O-])[O-].[Zn+2]` [zinc sulphate]: the “Mean lysis (LDH release)” value in data set [4] is given as 89%. The “Inhibition … (in words)” value on ExoU [1] is listed as “inhibited ExoU phospholipase activity”. For the molecule lauric acid–Asp–Thr–Dab [Poltide 2], the “IC50 for ExoU inhibition, polymyxin B and poltide analogues” value at ExoU [1] (Fig 2E) is on record as “no effect on ExoU activity”. Take subcitrate: the “IC50 of bismuth-based ExoU inhibitors and subcitrate alone” value on ExoU [1] (Fig 2C dose-response phospholipase assays) is “No inhibition”.
